Values of other authors as cited in patent US9908851B2, “2-piperidinyl substituted N,3-dihydroxybutanamides” (Duke University, priority 2013, dated 2018).
≈ marks a conversion by molar mass, not a printed value.

Tested on: N. gonorrhoeae 35/02 (drug-resistant strain)
Settings: strain 35/02; resistance profile of the strain

Compound	MIC
CO/N=C(\C(=O)N[C@@H]1C(=O)N2C(C(=O)O)=C(CSc3nc(=O)c(=O)[nH]n3C)CS[C@H]12)c1csc(N)n1 [ceftriaxone]	0.12 µg/mL (≈ 0.216 µM)
penicillin	6 µg/mL
